The values that follow come from PubChem BioAssay AID342 (DTP/NCI, 2004).

The assay deals with Swiss mice, Sarcoma 180 sc, mean tumor weight T/C. The experiment in a line: NCI In Vivo Anticancer Drug Screen. Data for tumor model Sarcoma 180 (subcutaneous) in Swiss mice. The following applies: endpoint: mean tumor weight, higher = larger tumour. The method, boiled down: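 T/C ratio: treated over vehicle-treated controls, measuring survival or tumor size in transplanted-tumor mice.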

[1] abbreviates: dose: 250.0 mg/kg/injection, schedule: Q01DX007 (ip), vehicle: carboxymethylcellulose (CMC).

Molecules are shown by their SMILES. “And” between values parts separate entries of the source, which are not always exact repeats. Equal values may be shown once.

For the compound `Cc1ccc(N=NN(C)C)cc1`, the T/C (dose: 9.8 mg/kg/injection, schedule: Q01DX007 (ip), vehicle: carboxymethylcellulose (CMC)) was 86 % of control; the T/C (dose: 14.8 mg/kg/injection, schedule: Q01DX007 (ip), vehicle: carboxymethylcellulose (CMC)) was 70 % of control; the T/C (dose: 15.0 mg/kg/injection, schedule: Q01DX007 (ip), vehicle: carboxymethylcellulose (CMC)) was 62 % of control; the T/C (dose: 16.65 mg/kg/injection, schedule: Q#A X014 (ip), vehicle: carboxymethylcellulose (CMC)) was 45 % of control; the T/C (dose: 22.2 mg/kg/injection, schedule: Q01DX007 (ip), vehicle: carboxymethylcellulose (CMC)) was 49 % of control; the T/C (dose: 25.0 mg/kg/injection, schedule: Q#A X014 (ip), vehicle: carboxymethylcellulose (CMC)) was 43 % of control. Besides, the T/C runs as follows: (dose: 33.3 mg/kg/injection, schedule: Q01DX007 (ip), vehicle: carboxymethylcellulose (CMC)) 60 % of control; (dose: 37.5 mg/kg/injection, schedule: Q#A X014 (ip), vehicle: carboxymethylcellulose (CMC)) 30 % of control; (dose: 56.0 mg/kg/injection, schedule: Q#A X014 (ip), vehicle: carboxymethylcellulose (CMC)) 14 % of control; (dose: 56.25 mg/kg/injection, schedule: Q#A X014 (ip), vehicle: methylcellulose (MC)) 36 % of control and 38 % of control; (dose: 115.0 mg/kg/injection, schedule: Q01DX007 (ip), vehicle: carboxymethylcellulose (CMC)) 34 % of control.
With `O=NN1CCN(N=O)CC1`, the T/C is 100 % of control (dose: 5.06 mg/kg/injection, schedule: Q#A X014 (ip), vehicle: carboxymethylcellulose (CMC)); 101 % of control (dose: 20.25 mg/kg/injection, schedule: Q#A X014 (ip), vehicle: carboxymethylcellulose (CMC)); 88 % of control (dose: 40.5 mg/kg/injection, schedule: Q#A X014 (ip), vehicle: carboxymethylcellulose (CMC)).
For `O=C(O)CCc1c[nH]c2ccc(N(CCCl)CCCl)cc12`, the T/C is 47 % of control (dose: 2.0 mg/kg/injection, schedule: Q01DX007 (ip), vehicle: carboxymethylcellulose (CMC)) and 32 % of control (dose: 4.0 mg/kg/injection, schedule: Q01DX007 (ip), vehicle: carboxymethylcellulose (CMC)).
In the case of `[Cl][Pt+2]([Cl])([Cl])[Cl].[Na+].[S-]c1ncnc2nc[nH]c12.[S-]c1ncnc2nc[nH]c12`, the T/C is, setting by setting: (dose: 1.1 mg/kg/injection, schedule: Q01DX007 (ip), vehicle: carboxymethylcellulose (CMC)) 92 % of control; (dose: 10.0 mg/kg/injection, schedule: Q01DX007 (ip), vehicle: carboxymethylcellulose (CMC)) 45 % of control; (dose: 19.0 mg/kg/injection, schedule: Q01DX007 (ip), vehicle: carboxymethylcellulose (CMC)) 74 % of control; (dose: 20.0 mg/kg/injection, schedule: Q01DX007 (ip), vehicle: carboxymethylcellulose (CMC)) 40 % of control; (dose: 22.0 mg/kg/injection, schedule: Q#A X014 (ip), vehicle: methylcellulose (MC)) 47 % of control and 50 % of control; (dose: 22.2 mg/kg/injection, schedule: Q#A X014 (ip), vehicle: carboxymethylcellulose (CMC)) 29 % of control. Moreover, the T/C runs as follows: (dose: 29.0 mg/kg/injection, schedule: Q01DX007 (ip), vehicle: carboxymethylcellulose (CMC)) 43 % of control; (dose: 30.0 mg/kg/injection, schedule: Q01DX007 (ip), vehicle: carboxymethylcellulose (CMC)) 54 % of control; (dose: 33.3 mg/kg/injection, schedule: Q#A X014 (ip), vehicle: carboxymethylcellulose (CMC)) 24 % of control; (dose: 44.0 mg/kg/injection, schedule: Q01DX007 (ip), vehicle: carboxymethylcellulose (CMC)) 38 % of control and 41 % of control; (dose: 50.0 mg/kg/injection, schedule: Q#A X014 (ip), vehicle: carboxymethylcellulose (CMC)) 10 % of control; (dose: 50.0 mg/kg/injection, schedule: Q#A X014 (ip), vehicle: methylcellulose (MC)) 24 % of control and 44 % of control. The T/C by setting is: (dose: 65.0 mg/kg/injection, schedule: Q01DX007 (ip), vehicle: carboxymethylcellulose (CMC)) 28 % of control; (dose: 66.0 mg/kg/injection, schedule: Q01DX007 (ip), vehicle: carboxymethylcellulose (CMC)) 57 % of control; (dose: 75.0 mg/kg/injection, schedule: Q#A X014 (ip), vehicle: carboxymethylcellulose (CMC)) 7 % of control; (dose: 75.0 mg/kg/injection, schedule: Q#A X014 (ip), vehicle: methylcellulose (MC)) 16 % of control and 34 % of control; (dose: 220.0 mg/kg/injection, schedule: Q01DX007 (ip), vehicle: carboxymethylcellulose (CMC)) 11 % of control; (dose: 300.0 mg/kg/injection, schedule: Q01DX007 (ip), vehicle: carboxymethylcellulose (CMC)) 1 % of control.
As for `CC1=C(/C=C/C(C)=N/NC(N)=S)C(C)(C)CCC1`, the T/C (dose: 20.0 mg/kg/injection, schedule: Q01DX007 (ip), vehicle: other) was 48 % of control and 66 % of control.
As to `CC1C/C=C2\CSC(NC(=O)/C3=C\N(C/C=C/C=C/C(O)CC(O)CC(=O)N3)C2=O)C(=O)O1` (stereo unspecified), the T/C was 111 % of control (dose: 18.75 mg/kg/injection, schedule: Q01DX007 (ip), vehicle: carboxymethylcellulose (CMC)); 112 % of control (dose: 37.5 mg/kg/injection, schedule: Q01DX007 (ip), vehicle: carboxymethylcellulose (CMC)); 114 % of control (dose: 150.0 mg/kg/injection, schedule: Q01DX007 (ip), vehicle: carboxymethylcellulose (CMC)); 68 % of control (dose: 187.0 mg/kg/injection, schedule: Q01DX007 (ip), vehicle: carboxymethylcellulose (CMC)); 119 % of control under setting [1]; 91 % of control (dose: 375.0 mg/kg/injection, schedule: Q01DX007 (ip), vehicle: carboxymethylcellulose (CMC)). The T/C (dose: 500.0 mg/kg/injection, schedule: Q01DX007 (ip), vehicle: carboxymethylcellulose (CMC)) was 73 % of control.
Turning to `O=C(N[C@H](CO)[C@H](O)c1ccc([N+](=O)[O-])cc1)C(Cl)Cl`, the T/C is, setting by setting: (dose: 125.0 mg/kg/injection, schedule: Q01DX007 (ip), vehicle: carboxymethylcellulose (CMC)) 99 % of control; under setting [1], 111 % of control and 112 % of control; (dose: 375.0 mg/kg/injection, schedule: Q#A X014 (ip), vehicle: carboxymethylcellulose (CMC)) 45 % of control; (dose: 400.0 mg/kg/injection, schedule: Q01DX007 (ip), vehicle: carboxymethylcellulose (CMC)) 76 % of control; (dose: 666.66 mg/kg/injection, schedule: Q01DX007 (ip), vehicle: carboxymethylcellulose (CMC)) 105 % of control; (dose: 1000.0 mg/kg/injection, schedule: Q01DX007 (ip), vehicle: carboxymethylcellulose (CMC)) 97 % of control.
For `CC(=O)OC(C)(C)/C=C/C(=O)[C@](C)(O)[C@H]1[C@H](O)C[C@@]2(C)[C@@H]3CC=C4[C@@H](C[C@H](O)C(=O)C4(C)C)[C@]3(C)C(=O)C[C@]12C`, the T/C (dose: 0.4 mg/kg/injection, schedule: Q01DX007 (ip), vehicle: saline) was 58 % of control and the T/C (dose: 0.8 mg/kg/injection, schedule: Q01DX007 (ip), vehicle: saline) was 84 % of control.
On to `C[C@]12CCc3c(ccc4cc(O)ccc34)[C@@H]1C[C@H](O)[C@@H]2O`, for which the T/C was 90 % of control (dose: 2.5 mg/kg/injection, schedule: Q01DX007 (sc), vehicle: steriod suspending solution) and 95 % of control (dose: 10.0 mg/kg/injection, schedule: Q01DX007 (sc), vehicle: steriod suspending solution).
As for `Cc1cc2nc3c(=O)[nH]c(=O)nc-3n(CCO)c2cc1C`, the T/C is, setting by setting: (dose: 60.0 mg/kg/injection, schedule: Q#A X014 (ip), vehicle: carboxymethylcellulose (CMC)) 78 % of control; (dose: 120.0 mg/kg/injection, schedule: Q#A X014 (ip), vehicle: carboxymethylcellulose (CMC)) 77 % of control; (dose: 240.0 mg/kg/injection, schedule: Q#A X014 (ip), vehicle: carboxymethylcellulose (CMC)) 76 % of control; (dose: 384.0 mg/kg/injection, schedule: Q01DX007 (ip), vehicle: carboxymethylcellulose (CMC)) 61 % of control; (dose: 480.0 mg/kg/injection, schedule: Q01DX007 (ip), vehicle: carboxymethylcellulose (CMC)) 62 % of control; (dose: 480.0 mg/kg/injection, schedule: Q#A X014 (ip), vehicle: carboxymethylcellulose (CMC)) 40 % of control. The T/C runs as follows: (dose: 640.0 mg/kg/injection, schedule: Q01DX007 (ip), vehicle: carboxymethylcellulose (CMC)) 82 % of control; (dose: 960.0 mg/kg/injection, schedule: Q01DX007 (ip), vehicle: carboxymethylcellulose (CMC)) 66 % of control.
Take `Nc1nc(Cl)ncc1F`: the T/C was 101 % of control (dose: 25.0 mg/kg/injection, schedule: Q01DX007 (ip), vehicle: saline); 83 % of control (dose: 50.0 mg/kg/injection, schedule: Q01DX007 (ip), vehicle: saline); 92 % of control (dose: 100.0 mg/kg/injection, schedule: Q01DX007 (ip), vehicle: saline).
With `CC1CCC2(NC1)OC1CC3C4CC=C5CC(OC6OC(CO)C(OC7OC(C)C(O)C(O)C7O)C(O)C6OC6OC(C)C(O)C(O)C6O)CCC5(C)C4CCC3(C)C1C2C` (stereo unspecified), the T/C (dose: 150.0 mg/kg/injection, schedule: Q01DX007 (sc), vehicle: steriod suspending solution) is 115 % of control; the T/C (dose: 300.0 mg/kg/injection, schedule: Q01DX007 (sc), vehicle: steriod suspending solution) was 100 % of control; the T/C (dose: 500.0 mg/kg/injection, schedule: Q01DX007 (sc), vehicle: steriod suspending solution) is 79 % of control.
